Experiments:
HIV-162V, 751, 77L, 151M = test: p24 antigen in activated PBMCs infected with isolate 62V, 75I, 77L, 151M; type: cell-based, HIV-1; settings: Human immunodeficiency virus 1, PBMC, read-out: ddI IC90
Source text: (§1) The present example provides data to test whether viral isolates carrying mutations in the RT gene that confer resistance to ddI could be rendered sensitive when the nucleoside analogue was combined with RV. Viruses containing one or more of the mutations associated with resistance to ddI, e.g., an isolate carrying the L74V mutation which confers primary resistance to ddI, a virus isolate carrying 4 different resistance-associated mutations in the RT gene (HIV-1 RTMDR1) were used to infect PHA-stimulated PBMCs. The HIV-174V isolate, and the HIV-1RTMDR1 isolate (containing the M41L, L74V, V106A and T215Y mutations, conferring resistance to AZT, ddI, nevirapine and other non-nucleotide RT inhibitors) were obtained from Dr. Larder at the National Institutes of Health AIDS Research and Reference Reagent Program (Catalog #2528 and #2529, respectively, Rockville, Md.). In addition, viruses having mutations 65R, 74V, 184V in the RT gene, and a virus containing the multiple-nucleoside-resistance mutation 151M were assayed in infectivity assays using RV plus ddI. The mutations present in the RT gene of each virus as well as their susceptibility to ddI are as follows: HIV-174V(ddIIC90=2.6 μM); HIV-141L, 74V, 106A, 215Y (ddIIC90=4.5 μM); HIV-165R, 74V, 184V (ddIIC90>20 μM) and HIV-162V, 751, 77L, 151M (ddIIC90>20 μM). […]

[1] = test system: HIV-1RTMDR1 isolate (M41L, L74V, V106A and T215Y); test: p24 antigen in activated PBMCs infected with isolate RTMDR1; type: cell-based
Source text: as §1

HIV-165R, 74V, 184V = test: p24 antigen in activated PBMCs infected with isolate 65R, 74V, 184V; type: cell-based, HIV-1; settings: Human immunodeficiency virus 1, PBMC, read-out: ddI IC90
Source text: as §1

PHA-stimulated PBMCs = test: MTT cell proliferation assay in PHA-stimulated PBMCs; type: cell-based, human
Procedure: The effect of RV and […] on PBMC proliferation at the concentrations shown to enhance the anti-HIV effect of ddI were examined. Cellular proliferation in culture in the presence or absence of drugs was measured by commercial MTT assay, according to the manufacturer's instructions (Boehringer Mannheim). Cell viability was determined by trypan blue staining.
Proliferation was measured on PHA-stimulated PBMCs cultured in the presence of IL-2, 2 μM ddI, and RV or HU. The MTT assay was performed on days 2 and 5 (FIG. 8), and days 2 and 7 (FIG. 20) after the addition of the drugs. […] On day 5, RV at 10 μM inhibited proliferation by 30%, whereas HU inhibited proliferation by 40 to 50%, depending on the donor.
Proliferating PBMCs were cultured in the presence of RV or HU for 5 days. On day 2 and 5 an MTT assay and a ^3H-thymidine incorporation assay were performed. The MTT is a […] assay that measures cellular metabolic activity and directly correlates to the number of cells in the culture. The ^3H-thymidine incorporation assay relies on the incorporation of the radioactive nucleoside ^3H-thymidine into newly synthesized DNA. […] These differences between the effects of RV and HU were even more striking in the MTT and ^3H-thymidine incorporation assays conducted on day 5 (FIG. 12 and FIG. 13, respectively).

PHA-activated PBMCs = test: 3H-thymidine incorporation (DNA synthesis) assay in proliferating PBMCs; type: cell-based, human; settings: RV 10 μM; day 2
Procedure: For example, a thymidine incorporation assay using PBMC's may be carried out as follows. PBMC's are suspended, then 0.1 ml (100,000) of cells are added to each designated well of a 96-well plate. The plates are placed into a 37° C., 5% CO2, 95% humid incubator for the predetermined incubation periods—normally 2 and 5 days. At the end of the incubation period, and at a standard time prior to harvesting the plate (6-18 hours), 1.0-1.5 μCi (20 μl of 50-75 mCi/ml in complete medium) of [^3H]-labeled methyl thymidine is added to each well of the assay. The plates are then incubated for the remaining 6-18 hours. At the end of the [^3H]-thymidine pulse, the plates are harvested onto filter paper using a semi-automated multi-well harvester. The filter paper containing bound DNA may be dried using either ethanol or by moderate microwave heating. The filter paper samples are counted in a scintillation counter using standard procedures.

Row | SMILES | IC90 (HIV-162V, 751, 77L, 151M) [µM] | suppression of viral replication ([1]; 2 μM ddI alone) [%] | IC90 ([1]; Human immunodeficiency virus 1, PBMC, read-out: ddI IC90) [µM] | IC90 (HIV-165R, 74V, 184V) [µM] | impact on cell proliferation (PHA-stimulated PBMCs; 5 μM RV, with IL-2 and 2 μM ddI) | OD values in the MTT assay (PHA-stimulated PBMCs; 10 μM RV, day 7, with IL-2 and 2 μM ddI) | MTT values (PHA-stimulated PBMCs; RV 10 μM, day 2, no ddI) | inhibition of proliferation (PHA-stimulated PBMCs; RV 10 μM, day 2, with IL-2 and 2 μM ddI) | inhibition of proliferation (PHA-stimulated PBMCs; RV 10 μM, day 5, with IL-2 and 2 μM ddI) [%] | 3H-thymidine incorporation (DNA synthesis) (PHA-activated PBMCs)
1 | OC[C@@H]1CC[C@H](n2cnc3c(O)ncnc32)O1 [ddI, 2′,3′-dideoxyinosine] | > 20 | 34 | 4.5 | > 20 | – | – | – | – | – | –
2 | Oc1ccc(/C=C/c2cc(O)cc(O)c2)cc1 [RV, trans-3, 4′, 5-trihydroxystilbene] | – | – | – | – | Minimal impact on cell proliferation | higher than those obtained with 100 μM HU | slightly lower than the untreated control | inhibited proliferation slightly | 30 | higher amounts of ^3H-thymidine incorporation than the untreated control
